Where two headings read alike, the source gives them in different places. Ends that are not written are not given here. * marks the point of attachment. Decanoyl = CCCCCCCCCC(=O)*; CH2Cl = ClC*
Tests used:
[1] = test system: PC-12 cells; assay: Actin cytoskeleton organization, phalloidin-TRITC staining; format: cell-based, rat; details: 2 to 10 μM, 30 minutes, labeled or unlabeled
Protocol: Slides with PC-12 cells were prepared as stated previously for localization studies. Briefly, cells were exposed to FITC-labeled or unlabeled peptides, at various concentrations, for 30 minutes, fixed and then permeabilized. Subsequently, F-actin was fluorescently labeled with phalloidin-Tetramethyl Rhodamine Iso-Thiocyanate (TRITC) (Sigma Aldrich) conjugate, diluted on saponin buffer (0.25 μg/ml), and nuclear staining with DAPI dihydrochloride (Sigma Aldrich) (0.02 μg/ml), at room temperature for maximum 30 minutes. Finally, slides were mounted and sealed, and stored at 4° C. protected from light. The effect of the peptides to actin polymerization was analyzed by confocal microscopy, as described before.

[2] = test system: PC12 cells; assay: Inhibition of [3H]norepinephrine neurosecretion by PC12 cells; format: cell-based, rat
Protocol: Using the neurosecretion assay described above, peptides fused to the TAT-PTD (L-TAT) were tested for inhibition of neurotransmitters and compared to use of L-TAT alone (SEQ ID NO: 3). In vitro screening for synthetic peptides capable of efficiently and selectively blocking neurotransmitter release in the PC12 cell line grown under defined conditions was performed.
PC12 cells were washed with DMEM-WM (Dulbecco's Modified Eagle Medium (GIBCO cat. no. 31968) completed with 25 units of penicillin and streptomycin each) and loaded for 1-2 h with [^3H] norepinephrine (NE; 0.5 μCi/ml) in DMEM-CM (DMEM-WM complemented with 6% horse serum and 6% fetal calf serum). Cells were washed for 1 h with DMEM-WM, and then washed 2 times at 5-minute intervals. Basal release was determined by a 15-minutes incubation with CaSB-glucose 5 mM K^+ (CaSB-glucose: 140 mM NaCl, 5 mM KCl, 2 mM CaCl2, 11 mM glucose, [pH 7.4]). The peptides were added to the cells at defined concentrations after loading with NE but before induction of secretion. Cells were depolarized with 85 mM K^+ (CaSB-glucose with Na^+ reduced accordingly) for 15 minutes to determine stimulated release. Superfusate (1 ml) was removed to tubes. Adherent cells were solubilized in CaSB-glucose-0.1% Triton (1 ml/well). The quantities of released and non-released radiolabeled neurotransmitter were determined by liquid scintillation counting of cleared superfusates and cell lysates, respectively. Total uptake was calculated by addition of released and retained radioactivity, and the percentage release was as calculated (released counts/total uptake counts)×100. Results were also expressed as percent inhibition of neurosecretion.

[3] = test system: rat lung fibroblast (LF); assay: Cell contraction/relaxation on wrinkling silicone substrate, live videomicroscopy; format: cell-based; details: 10 μM and 50 μM
Protocol: To study the effect(s) of the peptides on muscle cells, which associate with neurosecretory cells at neuromuscular junctions, peptides were cultured with rat lung fibroblast (LF) grown over wrinkling substrate (silicon) which can mimic the effects of contraction. These cells have a myofibroblastic phenotype, e.g., production of TGF-β, which make them suitable for cellular contraction/relaxation studies.
Wrinkling silicone substrates were prepared as essentially described previously (Harris, et al., Science. 208:177-179, 1980; Hinz, et al., Mol Biol Cell. 12:2730-41, 2001). Briefly, 50 μl of silicone (poly dimethyl siloxane; 30.000 centistokes, Dow Corning, Midland, Mich.) were deposited onto a 35 mm round glass coverslip at the bottom of a self-made observation chamber, which was centrifuged at 1.000 rpm for 2 minutes to spread the viscous fluid. The silicone surface was then crosslinked by passing it through a Bunsen flame; a flaming time of 1 second produced a surface stiffness that restricted wrinkle formation to fibroblasts with high contractile force (Hinz et al., supra). The polymerized silicone surface was finally coated with 10 μg/ml collagen type I (Sigma) for 2 hours at 37° C. Lung fibroblast cells were seeded at a density of 3.5×10^3 cells/cm^2 and cultured for 1-2 days before the experiment. […]

[4] = target: T1, Recombinant furin (Homo sapiens, UniProt P09958); assay: biochemical; format: biochemical
T1 sequence (P09958 108-794): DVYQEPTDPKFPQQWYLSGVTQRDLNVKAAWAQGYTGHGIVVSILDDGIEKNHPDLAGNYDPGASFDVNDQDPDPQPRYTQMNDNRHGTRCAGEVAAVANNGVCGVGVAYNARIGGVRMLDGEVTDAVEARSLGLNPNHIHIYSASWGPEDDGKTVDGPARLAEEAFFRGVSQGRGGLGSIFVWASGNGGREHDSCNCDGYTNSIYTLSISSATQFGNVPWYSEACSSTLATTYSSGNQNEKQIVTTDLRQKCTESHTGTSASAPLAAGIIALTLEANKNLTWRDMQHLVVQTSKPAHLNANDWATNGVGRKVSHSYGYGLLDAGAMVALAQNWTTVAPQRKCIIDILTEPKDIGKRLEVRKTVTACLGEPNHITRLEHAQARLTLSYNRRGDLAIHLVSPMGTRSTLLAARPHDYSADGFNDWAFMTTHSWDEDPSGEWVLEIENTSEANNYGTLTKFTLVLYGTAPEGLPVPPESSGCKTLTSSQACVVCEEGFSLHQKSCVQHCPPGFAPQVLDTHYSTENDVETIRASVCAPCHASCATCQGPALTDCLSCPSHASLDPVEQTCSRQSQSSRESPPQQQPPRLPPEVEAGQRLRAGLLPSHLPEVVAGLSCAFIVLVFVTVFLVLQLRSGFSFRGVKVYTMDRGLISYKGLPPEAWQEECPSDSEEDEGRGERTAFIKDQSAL
Protocol: To determine if the peptides described herein have an effect on the activity of PC enzymes which are involved in a condition or disorder such as fibrosis, the effect of the peptides on furin activity in vitro was measured as percent inhibition of cleavage of the furin substrate fluorogenic t-butyloxycarbonyl (Boc)-RVRR-7-amino-4-methylcoumarin (MCA).
All in vitro enzyme studies were performed at room temperature in a final volume of 50-100 μl in 96-well flat-bottom black plates. The buffer consisted of 100 mM HEPES, 1 mM CaCl2, 0.5% TritonX-100, and 1 mM 2-β-mercaptoethanol pH 7.5. Assays were performed using Boc-RVRR-MCA as fluorogenic substrate at 100 μM. Recombinant furin (0.8 U of activity) was incubated with Boc-RVRR-MCA in the presence or absence of varying concentrations of synthetic peptides D-9Rac/am (SEQ ID NO. 15), L-Bel1 (SEQ ID NO. 3), or L-9K (SEQ ID NO. 6). One unit of activity is defined as the amount of furin that can release 1 μmol of MCA from the fluorogenic Boc-RVRR-MCA per min at 30° C. The release of highly fluorescent 7-amino 4-methyl coumarin (MCA) from the Boc-RVRR-MCA was monitored by a spectrofluorometer instrument at excitation and emission wavelengths of 370 nm/460 nm. […]

[5] = target: T2, furin (Rattus norvegicus, UniProt P23377); format: biochemical
T2 construct: Furin activity was constitutively detected in PC12-ES cells; endogenous in cells; host or cells: PC12-ES cells (lysate)
T2 sequence (P23377 108-793): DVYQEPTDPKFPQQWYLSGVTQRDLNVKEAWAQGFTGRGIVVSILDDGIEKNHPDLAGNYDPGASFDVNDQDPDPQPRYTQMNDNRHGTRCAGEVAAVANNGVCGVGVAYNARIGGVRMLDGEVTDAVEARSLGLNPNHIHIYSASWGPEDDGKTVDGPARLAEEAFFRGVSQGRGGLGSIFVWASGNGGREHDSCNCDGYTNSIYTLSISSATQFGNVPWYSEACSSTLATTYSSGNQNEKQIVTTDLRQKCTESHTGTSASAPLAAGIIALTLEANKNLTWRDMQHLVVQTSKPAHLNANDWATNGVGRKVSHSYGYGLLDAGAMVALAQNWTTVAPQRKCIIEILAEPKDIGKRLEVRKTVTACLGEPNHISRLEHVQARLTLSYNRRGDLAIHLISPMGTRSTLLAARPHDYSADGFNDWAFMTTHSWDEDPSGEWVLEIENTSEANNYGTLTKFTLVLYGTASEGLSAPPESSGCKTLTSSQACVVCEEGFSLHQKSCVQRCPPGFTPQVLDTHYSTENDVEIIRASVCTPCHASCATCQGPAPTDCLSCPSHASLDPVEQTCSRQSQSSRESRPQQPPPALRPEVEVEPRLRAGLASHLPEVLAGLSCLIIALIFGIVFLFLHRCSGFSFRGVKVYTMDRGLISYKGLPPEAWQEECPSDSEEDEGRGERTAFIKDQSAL
Protocol: To monitor the intracellular furin activity, 80% confluent PC12-ES cells were washed twice with ice-cold phosphate-buffered saline (PBS1×) by centrifugation at 800×g for 5 minutes at 4° C., resuspended in 100 mM HEPES, 1 mM CaCl2, 0.5% TritonX-100, and 1 mM 2-β-mercaptoethanol, pH 7.5, sonicated 6 times at 4° C. for 10 seconds, and then centrifuged at 8000×g for 20 minutes at 4° C. The protein concentration in the samples was determined using a bicinchonic acid protein assay kit (Pierce Chemical Co.).
Intracellular furin activity was measured with a furin-specific fluorogenic substrate, t-butyloxycarbonyl (Boc)-[…]-7-amino-4-methylcoumarin (MCA). Briefly, the cell lysate (20 μg-60 μg of protein) prepared as described above was incubated with 100 μM Boc-RVRR-MCA in a 96-well flat-bottom black plate for at least 6 hours at room temperature and fluorescence measured by excitation at 365 nm and emission at 450 nm.

[6] = test system: PC12-ES cells; assay: [3H]NE evoked secretion by PC12-ES cells with secretagogues; format: cell-based, rat; details: potassium 80 mM, nicotine 0.1 mM or carbachol 1 mM, 15 minutes
Description: Neurotransmitter Secretion by PC12-ES. PC12 cells offer a number of advantages for studies of regulated secretion. Exocytosis of large dense-core vesicles (LDCVs) in these cells can be easily assayed for the release of radioactive norepinephrine ([^3H]NE) from pre-labeled cells [Greene et al., Brain Res, 129:247-63, 1977; Greene et al., J Neurochem, 30:579-86, 1978; Greene et al., J. Neurochem. 30:549-55, 1978; Greene et al., Brain Res. 138:521-8; 1977; Greene et al., Nature 268:349-51, 1977]. The neurosecretion assay was carried out by measuring [^3H]NE evoked secretion with PC12-ES cells.
PC12-ES cells were either untreated, treated with STSP (100 nM), or treated with NGF (50 ng/ml) for 48 h before the loading with [^3H]NE and prepared for release measurements. […] Media were collected, and released [^3H]NE as well as the total cell content were determined by liquid scintillation counting. Basal secretion was measured in calcium secretion buffer (CaSB) without secretagogue or CaSB supplemented with 11 mM glucose (CaSB-Glucose). The data are expressed in Table 1 as the percent secretion: [amount released/(amount released+amount in cell lysate)]×100. Net secretion is secretagogue-stimulated release minus basal release.

[7] = cited from earlier work
[8] = test system: PC12-ES cells; assay: Evoked neurotransmitter secretion by undifferentiated PC12-ES cells, furin inhibitor and arginine rich peptides; format: cell-based, rat; details: for inhibition of evoked neurotransmitter secretion by PC12-ES cells: potassium 80 mM, 15 minutes
[9] = target: T1, Recombinant furin; details: CALBIOCHEM; cited from earlier work
[10] = test system: PC12 cells; format: cell-based, rat
Protocol: […]. Very little toxicity was present at 24 hours, and cytotoxicity at 48 hours was only slightly greater than at 24 hours. Cytotoxicity generally dipped to approximately 90% live cells when peptides were administered at 500 μM.

[11] = 10% concentration in oil/water emulsion, 30-day treatment; cited from earlier work
[12] = Boc-RVRR-MCA 100 μM as substrate
[13] = EDTA 50 mM, EGTA 50 mM, Dec-RVKR-CMK 50 μM

9K-L: SEQ ID NO: 6 (GYGKKKKKKKKKG; Synthetic peptide 9K-L)
effect on actin content and organization [1]: No effect | inhibition of neurotransmitter-evoked secretion ([2]; concentration not given, peptide alone): approximately 20% | relaxing effect on lung myofibroblasts on silicon substrate [3]: not observed | concentration for complete blockade of cleavage of Boc-RVRR-MCA by furin [4]: > 3.5 µM

O=C(O)CN(CCOCCOCCN(CC(=O)O)CC(=O)O)CC(=O)O [EGTA, reference compound]
inhibition of in vitro furin activity (in words) [4, 12]: effectively suppressed | inhibition of intracellular furin activity (in words) [5, 13]: inhibited

C[N+](C)(C)CCOC(N)=O [Carbachol]
percent secretion of [3H]NE ([6]; CaSB-Glucose, NGF differentiated cells): 32.4% | percent secretion of [3H]NE ([6]; CaSB-Glucose, STSP differentiated cells): 57% | percent secretion of [3H]NE ([6]; CaSB-Glucose, non-differentiated cells): 37.24% | percent secretion of [3H]NE ([6]; CaSB, NGF differentiated cells): 27% | percent secretion of [3H]NE ([6]; CaSB, STSP differentiated cells): 46.5% | percent secretion of [3H]NE ([6]; CaSB, non-differentiated cells): 44.7%

Pal-Lys-Thr-Thr-Lys-Ser (Pal-KTTKS) [palmitoyl pentapeptide]
improving the effects of photo-aging ([7]; 3 ppm versus retinol 700 ppm): as effective as retinol | side effects ([7]; in vivo): not associated with any side effects

Decanoyl-Arg-Val-Lys-Arg-CMK (Decanoyl-RVKR-CH2Cl) [FI-I, reference compound]
inhibition of in vitro furin activity (in words) [4, 12]: inhibited | dose dependence of inhibition of evoked secretion [8]: dose dependent | inhibition of evoked neurotransmitter secretion by PC12-ES cells ([8]; 10 μM): 12.6% | inhibition of evoked neurotransmitter secretion by PC12-ES cells ([8]; 100 μM): 50% | inhibition of intracellular furin activity (in words) [5, 13]: inhibited | Ki [9]: 1 nM | cytotoxicity (MTT) [10]: no marked cytotoxicity

Ac-Glu-Glu-Met-Gln-Arg-Arg-NH2 (Ac-EEMQRR-NH2) [L-Argireline]
inhibition of secretion ([2]; 50 μM (mixture: 50 μM each)): no inhibition | reduced wrinkle depth [11]: up to 30%

O=C(O)CN(CCN(CC(=O)O)CC(=O)O)CC(=O)O [EDTA, reference compound]
inhibition of in vitro furin activity (in words) [4]: effectively suppressed | inhibition of intracellular furin activity (in words) [5]: inhibited

Source: patent US8318898B2, “Synthetic peptides for use as inhibitors of neurotransmitter secretion and as inducers of cellular relaxation” (Universite de Lausanne, priority 2005, dated 2012)
